The values below come from patent publication US8877968B2, “Melanocortin receptor modulators, process for preparing them and use there in human medicine and cosmetics” (Galderma Research & Development, priority 2008, dated 2014).

One series addresses T1, hMC1R (Homo sapiens, UniProt Q01726).
T1 construct: expressed in transfected cells; host or cells: HEK293
The experiment in a line: Transactivation test (CRE-Luc luciferase, agonist mode). Type of series: cell-based. As to conditions: HEK293 transfected with pCRE-Luc and hMC1R; products tested alone (agonist), 6 hours; normalized to NDP-MSH 10 nM = 100%; read-out: EC50 hMC1-R. The protocol: The lines HEK293 are transfected with vectors pCRE-Luc and hMC1R. The cells are cultured at 37° C. and 5% CO2, in DMEM medium supplemented with 10% foetal calf serum.
In the presence of an activator (agonist), the melanocortin receptor will activate the cAMP pathway, which, via the vector CRE-Luc, will lead to the synthesis of luciferase. After addition of a lysis buffer containing a luminescent luciferase substrate, the luminescence proportional to the degree of activation or inhibition of receptor may be measured.
The products are dissolved at 10 mM in DMSO. They are tested as a response dose at 0.1% of DMSO final. The range comprising 10 points and a zero starts at 10 μM with four-fold dilutions. To test agonists, the products are tested alone. To determine the antagonist behaviour, the products of interest are tested in the presence of 1 nM NDP-MSH (reference agonist). The cells are inoculated at a rate of 5000 cells per well (384-well plate) in serum-free DMEM medium and incubated overnight at 37° C. and 5% CO2.
The products and the reference ligand (NDP-MSH) are added the following day and the plates are reincubated for 6 hours at 37° C. and 5% CO2. After adding the lysis buffer containing luciferin, the plates are read in a Top-Count machine. […] An EC50 is calculated for each product using the XLFit software. […]

Series [1] can be described thus: Test of metabolic stability in the presence of liver microsomes. It is filed as in vitro ADME. The settings on record: liver microsomes 0.5 mg/ml, product 10 μM, 37° C., pH 7.4, NADP/G6P cofactors; disappearance of parent by LC/MS/MS; species not given; read-out: t½. The protocol:
Test of Metabolic Stability in the Presence of Liver Microsomes
The microsomes are cellular endoplasmic reticulum vesicles obtained after purification, from liver tissue. They contain membrane enzymes (Cytochromes P450) involved in oxidative metabolism (phase I).
In a buffered reaction medium at 37° C., the test product is incubated in the presence of microsomes from different species. Samples of the incubate are taken at different times (kinetics). Quantification by LC/MS/MS analysis makes it possible to measure the disappearance of parent product associated with the phase I liver metabolism.
The products are dissolved at 10 mM in DMSO. They are incubated at 10 μM in the presence of microsomes (0.5 mg/ml). The reaction medium is formed from 100 mM phosphate buffer at pH 7.4, G6PDH (0.4 U/ml), 0.01% Pluronic acid and cofactors MgCl2 5 mM, NADP and G6P (1.3 mM and 3.3 mM, respectively). Samples of the reaction medium are taken at 0, 5, 10, 15, 30 and 60 minutes. At each time, the enzymatic reaction is stopped by adding methanol. After centrifugation (3000 rpm, 30 minutes), the samples are analysed by LC/MS/MS. The concentration of parent product remaining is quantified over time and allows a half-life to be calculated for each product.
(In general: Liver microsomes are vesicles of endoplasmic reticulum, rich in cytochrome P450 enzymes.)

The subject of another series is B6.Cg-Ay mice. The series can be described thus: Modulation of the pigmentation of hair during regrowth after depilation in mice. The settings on record: female B6.Cg-Ay mice; 5% in ethanol applied topically every day for 11 days after depilation; chromametry 19 days after depilation; smaller L = darker hair. Type of series: in vivo. The text has this: FIG. 2 is a bar graph showing the modulation of the pigmentation of hair during regrowth after depilation in mice, where the L value measures color on a scale where the smaller the value of L, the darker the hair, for two compounds of the invention diluted in ethanol and applied topically each day for 11 days after depilation.
Modulation of the Pigmentation of Hair During Regrowth After Depilation in Mice: (Results in Table of FIG. 2)
Female 8-week-old B6.Cg-Ay mice are shaved and then subjected to depilation with cold wax under gaseous anaesthesia to synchronize all the hair follicles at the start of the anagenic phase.
After depilation, the MC1R agonists diluted to 5% in ethanol are applied topically every day to the depilated area for 11 days. Nineteen days after depilation, the pigmentation of the hairs is measured by chromametry on the area of regrowth: the L value measures the colour on a scale ranging from black to white (the smaller the value of L, the darker the hair).

A short description of series [2]: Log P and Log D by HPLC-MS (octanol-water). It is filed as physicochemical. The settings on record: octanol/water (50/50 v/v); octanol-water 50/50, pH 6.5, LC/MS/MS. The source says: Lod P and Loci D by HPLC-MS
Log P, also known as Log Kow, (octanol/water partition coefficient) enables characterization of the lipophilic nature of a molecule. Log P=Log(Coct/Cwater)
In contrast with Log P, Log D is a determination of a given pH.
Preparation of the Samples
The molecule at 10^−2M in DMSO is placed in an octanol-water mixture (50/50 volume/volume).
After stirring for ten hours, the sample is centrifuged and the two phases are separated in order to be analysed. The octanol phase is diluted in methanol before assay.
The concentrations of test molecule present in each phase are determined by an LC/MS/MS analysis. Log P=Log(areaoct*Dilution factor/areaaq)

In general, pEC50 refers to −log10 of the EC50, conventionally taken in molar units. For orientation: logD means the decadic logarithm of the distribution of all forms, ionised or not, between an organic phase and buffer at a given pH. High values mean a more lipophilic compound, low ones a more hydrophilic compound.

pEC50: −log10 of the molar value.

T1 sequence (Q01726 whole entry): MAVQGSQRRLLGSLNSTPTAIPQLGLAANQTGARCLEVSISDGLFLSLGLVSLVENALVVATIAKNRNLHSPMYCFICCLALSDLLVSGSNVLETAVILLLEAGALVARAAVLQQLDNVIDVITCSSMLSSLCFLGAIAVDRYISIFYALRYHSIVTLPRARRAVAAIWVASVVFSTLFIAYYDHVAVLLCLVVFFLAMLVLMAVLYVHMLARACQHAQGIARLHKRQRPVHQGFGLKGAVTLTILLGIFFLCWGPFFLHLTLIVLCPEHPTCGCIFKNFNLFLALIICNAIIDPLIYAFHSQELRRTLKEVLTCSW

In the case of `CCOC(=O)C1(C2CCCCC2)CCN(C(=O)[C@@H](Cc2ccc(OC)cc2)NC(=O)NCCc2c[nH]cn2)CC1` [Compound 34, Ethyl 4-cyclohexyl-1-[(R)-2-{3-[2-(1H-imidazol-4-yl)ethyl]-ureido}-3-(4-methoxyphenyl)propionyl]piperidine-4-carboxylate], on hMC1R, the pEC50 is 7.22. For the same compound, the half-life at 10 μM in series [1] is 3 to 4 min. In addition, the “Value of L at D19, Mean” value in the series with B6.Cg-Ay mice is 27.42. In addition, in series [2], the logD at 10 h amounted to 4.
For `CCCC(=O)C1(C2CCCCC2)CCN(C(=O)[C@@H](Cc2ccc(OC)cc2)NC(=O)NCCc2c[nH]cn2)CC1` [Compound 40, 1-[(R)-2-(4-Butyryl-4-cyclohexylpiperidin-1-yl)-1-(4-methoxybenzyl)-2-oxoethyl]-3-[2-(1H-imidazol-4-yl)ethyl]urea], in that order: 6.92, 3 to 4 min, 31.00 and 4.8.
